US10106523B2, “Amide compound” (ASTELLAS PHARMA INC., priority 2014, dated 2018)

What was measured:
rat EP2 receptor = target: T1, rat EP2 receptor (Rattus norvegicus, UniProt Q62928); experiment: Selectivity test: antagonistic action on rat EP2 receptor (cAMP amount, CHO-K1 cells); format: cell-based; conditions: PGE2 100 nmol/L, CHO-K1 cells stably expressing rat EP2; read-out: Concentration up to which no inhibitory action of 50% or more on the increase in intracellular cAMP amount due to PGE2 through the rat EP2 receptor
T1 construct: expressed in transfected cells
Description: Test Example 9: Evaluation Test of Receptor Antagonistic Action on Rat EP1/EP2/EP3 Receptor (Selectivity Test)
The antagonistic action of Compound A on other subtypes ([…], EP2, and EP3) of the rat-derived PGE2 receptor was evaluated. For EP1 and EP3, the intracellular Ca^2+ amount was used as an indicator, and for EP2, the intracellular cAMP amount was used as an indicator, so as to investigate the action of the test compound.
Construction of Rat EP1, EP2, or EP3 Receptor Expressing Vector: A rat EP1 receptor gene (GenBank accession No.: D88751.1), a rat EP2 receptor gene (GenBank accession No.: NM_031088.1), or a rat EP3 receptor gene (GenBank accession No.: NM_012704.1) were inserted respectively into an expression vector pcDNA3.1-V5-His-TOPO (Invitrogen Inc.).
Construction of Cell Stably Expressing Rat EP1, EP2, or EP3 Receptor: […]
The amount of cAMP contained in the cell lysate was measured with a cAMP HiRange kit in the same manner as in Test Example 4. The ratio of the cAMP amount when the test compound was treated was calculated, by taking the cAMP amount with addition of PGE2 having a final concentration of 100 nmol/L as 100% and taking the cAMP amount without addition of PGE2 as 0%.

[1] = test system: db/db mice with type 2 diabetes; experiment: Effect on albumin in urine of db/db mice with type 2 diabetes; format: in vivo, mouse; conditions: 0.3 mg/kg po once per day for one week
Description: Test Example 7: Test for Investigation of Effect on Albumin in Urine of db/db Mice with Type 2 Diabetes
db/db Mice (male, 8-week old) with type 2 diabetes were used for the test. The albumin concentrations in urine samples obtained by urine collection for 24 hours were measured by an ELISA method using an anti-mouse albumin antibody (RAM/Alb/7S, Nordic Immunology), and the creatinine concentration in urine was measured using CRE-EN Kainos (Kainos Co., Ltd.). The albumin-creatinine ratio (ACR) in urine was calculated, and a group (n=12) not treated with the test compound and a group (n=12) treated with the test compound were allocated without a bias in ACR. The test compound suspended in a 0.5% methyl cellulose (MC) solution was orally administered to the group treated with the test compound at a dose of 0.3 mg/kg once per day for one week (10 mL/kg). […] Urine was collected for 24 hours from the completion of the final administration, and using the calculated ACR as an indicator, the improvement effect of the test compound on the early nephropathy of the mice with type 2 diabetes was investigated. The inhibitory rate of ACR of the group treated with the test compound by taking the ACR value of the group not treated with the test compound as 100% was determined.

T1 sequence (Q62928 whole entry): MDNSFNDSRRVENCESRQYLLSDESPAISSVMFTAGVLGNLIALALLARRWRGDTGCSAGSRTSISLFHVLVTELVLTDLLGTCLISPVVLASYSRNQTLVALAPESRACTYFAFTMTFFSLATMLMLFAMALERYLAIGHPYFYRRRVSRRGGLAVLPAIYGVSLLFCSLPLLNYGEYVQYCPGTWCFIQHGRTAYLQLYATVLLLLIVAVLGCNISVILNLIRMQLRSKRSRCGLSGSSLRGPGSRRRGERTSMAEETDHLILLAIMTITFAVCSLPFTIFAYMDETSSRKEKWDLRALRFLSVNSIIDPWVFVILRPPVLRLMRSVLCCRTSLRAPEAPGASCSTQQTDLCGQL

Cc1nn(Cc2cc3ccccc3cn2)c(C(=O)N[C@@H](C)c2ccc(C(=O)O)cc2)c1Br [Compound A, 4-[(1S)-1-({[4-bromo-1-(isoquinolin-3-ylmethyl)-3-methyl-1H-pyrazol-5-yl]carbonyl}amino)ethyl]benzoic acid]
IC50 (rat EP2 receptor): > 10 µM | Inhibitory rate of ACR (albumin-creatinine ratio in urine) [1]: 44%
